Our source for the Peptide exchange values is patent US20170189504A1, “NOVEL PEPTIDES AND COMBINATION OF PEPTIDES FOR USE IN IMMUNOTHERAPY AGAINST VARIOUS CANCERS” (immatics biotechnologies GmbH, priority 2015, published 2017).

The assay relates to HLA-A*02. In words: MHC binding assay, UV-ligand exchange with β2m ELISA, HLA-A*02 (Table 20). Set-up: species or system human. Conditions: binding to HLA-A*02 ranged by peptide exchange yield (UV-ligand exchange, β2m ELISA). The text has this:
Candidate peptides for T cell based therapies according to the present invention were further tested for their MHC binding capacity (affinity). The individual peptide-MHC complexes were produced by UV-ligand exchange, where a UV-sensitive peptide is cleaved upon UV-irradiation, and exchanged with the peptide of interest as analyzed. Only peptide candidates that can effectively bind and stabilize the peptide-receptive MHC molecules prevent dissociation of the MHC complexes. To determine the yield of the exchange reaction, an ELISA was performed based on the detection of the light chain ((β2m) of stabilized MHC complexes. The assay was performed as generally described in Rodenko et al. (Rodenko et al., 2006).
96 well MAXISorp plates (NUNC) were coated over night with 2 ug/ml streptavidin in PBS at room temperature, washed 4× and blocked for 1 h at 37° C. in 2% BSA containing blocking buffer. Refolded HLA-A*02:01/MLA-001 monomers served as standards, covering the range of 15-500 ng/ml. Peptide-MHC monomers of the UV-exchange reaction were diluted 100 fold in blocking buffer. Samples were incubated for 1 h at 37° C., washed four times, incubated with 2 ug/ml HRP conjugated anti-β2m for 1 h at 37° C., washed again and detected with TMB solution that is stopped with […]. Absorption was measured at 450 nm. Candidate peptides that show a high exchange yield (preferably higher than 50%, most preferred higher than 75%) are generally preferred for a generation and production of antibodies or fragments thereof, and/or T cell receptors or fragments thereof, as they show sufficient avidity to the MHC molecules and prevent dissociation of the MHC complexes.
(In general: In an ELISA, binding on a coated surface is turned into a signal by an enzyme label.)

Consider “112 (SLGKFTFDV; listed as Homo sapiens) [compound 112]”, for which the Peptide exchange result was “++++ (≧75% = ++++)”.

As to “57 (TVFTDHMLTV; listed as Homo sapiens) [compound 57]”, the Peptide exchange entry is “++ (20%-49% = ++)”.

Turning to “39 (HLLEGSVGV; listed as Homo sapiens) [compound 39]”, the Peptide exchange result is given as “+++ (50%-75% = +++)”.

For “121 (FTIFRTISV; listed as Homo sapiens) [compound 121]”, the Peptide exchange entry is given as “+++ (50%-75% = +++)”.

Consider “133 (ALLPRLHQL; listed as Homo sapiens) [compound 133]”, for which the Peptide exchange entry is reported as “++++ (≧75% = ++++)”.

Take “156 (ILGDLSHLL; listed as Homo sapiens) [compound 156]”: the Peptide exchange result is given as “+++ (50%-75% = +++)”.

For the substance “264 (KLFPQETLFL; listed as Homo sapiens) [compound 264]”, the Peptide exchange result is on record as “+++ (50%-75% = +++)”.

For “119 (FIIQGLRSVGA; listed as Homo sapiens) [compound 119]”, the Peptide exchange result is given as “+++ (50%-75% = +++)”.

Regarding “240 (YMGEEKLIASV; listed as Homo sapiens) [compound 240]”, the Peptide exchange result is given as “+++ (50%-75% = +++)”.

As to “33 (YIKTELISV; listed as Homo sapiens) [compound 33]”, the Peptide exchange entry is reported as “+++ (50%-75% = +++)”.

For the substance “253 (ALAELIDNSL; listed as Homo sapiens) [compound 253]”, the Peptide exchange entry was “+++ (50%-75% = +++)”.

Consider “28 (SLPNGKPVSV; listed as Homo sapiens) [compound 28]”, for which the Peptide exchange result is “+++ (50%-75% = +++)”.

Consider “19 (SISDNVWEV; listed as Homo sapiens) [compound 19]”, for which the Peptide exchange result is on record as “+++ (50%-75% = +++)”.

As to “118 (QLWQFLVTL; listed as Homo sapiens) [compound 118]”, the Peptide exchange entry is “+++ (50%-75% = +++)”.

For the substance “126 (QMFQYFITV; listed as Homo sapiens) [compound 126]”, the Peptide exchange entry is given as “++++ (≧75% = ++++)”.

Regarding “81 (NALDKVLSV; listed as Homo sapiens) [compound 81]”, the Peptide exchange entry is given as “+++ (50%-75% = +++)”.

In the case of “3 (KLEENGDLYL; listed as Homo sapiens) [compound 3]”, the Peptide exchange entry is listed as “++++ (≧75% = ++++)”.

In the case of “70 (LLLGDSALYL; listed as Homo sapiens) [compound 70]”, the Peptide exchange result was “+++ (50%-75% = +++)”.

Consider “101 (ALADFMLSL; listed as Homo sapiens) [compound 101]”, for which the Peptide exchange entry is “+++ (50%-75% = +++)”.

On to “257 (GLYTDPCGV; listed as Homo sapiens) [compound 257]”, for which the Peptide exchange entry is recorded as “++++ (≧75% = ++++)”.

In the case of “85 (VLNDILVRA; listed as Homo sapiens) [compound 85]”, the Peptide exchange result is on record as “+++ (50%-75% = +++)”.

“142 (ILVEGISTV; listed as Homo sapiens) [compound 142]”: the Peptide exchange entry was “+++ (50%-75% = +++)”.

With “115 (SLDPDTLPAV; listed as Homo sapiens) [compound 115]”, the Peptide exchange result was “++ (20%-49% = ++)”.

As to “80 (KLYEADFVL; listed as Homo sapiens) [compound 80]”, the Peptide exchange result is on record as “++ (20%-49% = ++)”.

Regarding “127 (KLDGNELDL; listed as Homo sapiens) [compound 127]”, the Peptide exchange entry is listed as “+++ (50%-75% = +++)”.

“36 (SLADTNSLAVV; listed as Homo sapiens) [compound 36]”: the Peptide exchange result is recorded as “+++ (50%-75% = +++)”.

Consider “78 (TVVTRLDEI; listed as Homo sapiens) [compound 78]”, for which the Peptide exchange result is given as “++ (20%-49% = ++)”.

As to “48 (QVIEDSTGV; listed as Homo sapiens) [compound 48]”, the Peptide exchange result is “++ (20%-49% = ++)”.

“143 (ALLPELREV; listed as Homo sapiens) [compound 143]”: the Peptide exchange entry is “+++ (50%-75% = +++)”.

For “75 (AVIKFLELL; listed as Homo sapiens) [compound 75]”, the Peptide exchange entry is recorded as “+++ (50%-75% = +++)”.

Take “259 (ILLPRIIEA; listed as Homo sapiens) [compound 259]”: the Peptide exchange entry is recorded as “+++ (50%-75% = +++)”.

On to “265 (NTCPYVHNI; listed as Homo sapiens) [compound 265]”, for which the Peptide exchange entry is given as “+++ (50%-75% = +++)”.

For the substance “98 (RLFPDFFTRVAL; listed as Homo sapiens) [compound 98]”, the Peptide exchange result is reported as “++ (20%-49% = ++)”.

Turning to “55 (SLATKIVEA; listed as Homo sapiens) [compound 55]”, the Peptide exchange result was “+++ (50%-75% = +++)”.

As for “136 (FLFGGVLMTL; listed as Homo sapiens) [compound 136]”, the Peptide exchange result is “++ (20%-49% = ++)”.

With “244 (YLLEKNRVV; listed as Homo sapiens) [compound 244]”, the Peptide exchange entry is recorded as “++ (20%-49% = ++)”.

Turning to “107 (LLVPTSGIYFV; listed as Homo sapiens) [compound 107]”, the Peptide exchange entry is “+++ (50%-75% = +++)”.

With “242 (WLYGEDHQI; listed as Homo sapiens) [compound 242]”, the Peptide exchange entry is recorded as “++ (20%-49% = ++)”.

Regarding “40 (VLIDPQWVLTA; listed as Homo sapiens) [compound 40]”, the Peptide exchange entry is “+++ (50%-75% = +++)”.

For the substance “59 (KLLDPQEFTL; listed as Homo sapiens) [compound 59]”, the Peptide exchange entry is “+++ (50%-75% = +++)”.

“241 (KTIQQLETV; listed as Homo sapiens) [compound 241]”: the Peptide exchange entry was “++ (20%-49% = ++)”.

Regarding “44 (SLFETAWEA; listed as Homo sapiens) [compound 44]”, the Peptide exchange result was “+++ (50%-75% = +++)”.

Take “24 (TLDEKVAEL; listed as Homo sapiens) [compound 24]”: the Peptide exchange result was “+++ (50%-75% = +++)”.

As for “72 (FLTAINYLL; listed as Homo sapiens) [compound 72]”, the Peptide exchange result is on record as “+++ (50%-75% = +++)”.

For “42 (LLDSVSRL; listed as Homo sapiens) [compound 42]”, the Peptide exchange result is recorded as “+ (<20% = +)”.

“65 (SVVPDVRSV; listed as Homo sapiens) [compound 65]”: the Peptide exchange entry is given as “++ (20%-49% = ++)”.

With “69 (FLAVGLVDV; listed as Homo sapiens) [compound 69]”, the Peptide exchange result was “+++ (50%-75% = +++)”.

Regarding “54 (VLNPLITAV; listed as Homo sapiens) [compound 54]”, the Peptide exchange result is “+++ (50%-75% = +++)”.

Regarding “148 (MLAGIAITV; listed as Homo sapiens) [compound 148]”, the Peptide exchange entry was “+++ (50%-75% = +++)”.

As for “58 (YLLPLLPAL; listed as Homo sapiens) [compound 58]”, the Peptide exchange entry was “+++ (50%-75% = +++)”.

For the substance “246 (TVSDVLNSV; listed as Homo sapiens) [compound 246]”, the Peptide exchange entry is on record as “+++ (50%-75% = +++)”.

For the substance “38 (FLGPRIIGL; listed as Homo sapiens) [compound 38]”, the Peptide exchange result is recorded as “+++ (50%-75% = +++)”.

On to “261 (QLQDRVYAL; listed as Homo sapiens) [compound 261]”, for which the Peptide exchange result is reported as “+++ (50%-75% = +++)”.

As for “105 (ALLGTKILL; listed as Homo sapiens) [compound 105]”, the Peptide exchange result was “+++ (50%-75% = +++)”.

For “46 (SQFPLPLAV; listed as Homo sapiens) [compound 46]”, the Peptide exchange entry is on record as “++ (20%-49% = ++)”.

“68 (SLSNRLYYL; listed as Homo sapiens) [compound 68]”: the Peptide exchange result is recorded as “+++ (50%-75% = +++)”.

On to “50 (ILFHGVFYA; listed as Homo sapiens) [compound 50]”, for which the Peptide exchange entry is “+++ (50%-75% = +++)”.

As for “63 (SQIPAQPSV; listed as Homo sapiens) [compound 63]”, the Peptide exchange result is “++ (20%-49% = ++)”.

Consider “111 (AIVDLIHDI; listed as Homo sapiens) [compound 111]”, for which the Peptide exchange result is recorded as “++ (20%-49% = ++)”.

For “21 (AIQDEIRSV; listed as Homo sapiens) [compound 21]”, the Peptide exchange entry was “+++ (50%-75% = +++)”.

For “45 (SLTEVSLPL; listed as Homo sapiens) [compound 45]”, the Peptide exchange entry is recorded as “+++ (50%-75% = +++)”.

For the substance “239 (KMNESTRSV; listed as Homo sapiens) [compound 239]”, the Peptide exchange result is given as “++ (20%-49% = ++)”.

“132 (ILGEVLAQL; listed as Homo sapiens) [compound 132]”: the Peptide exchange entry was “+++ (50%-75% = +++)”.

As to “10 (GIAGSLKTV; listed as Homo sapiens) [compound 10]”, the Peptide exchange entry was “+++ (50%-75% = +++)”.

For “15 (YLDLSHNQL; listed as Homo sapiens) [compound 15]”, the Peptide exchange entry is “+++ (50%-75% = +++)”.

Turning to “114 (QLIQTLHAV; listed as Homo sapiens) [compound 114]”, the Peptide exchange result is given as “+++ (50%-75% = +++)”.
